For 23 compounds, IC50 results are on record in patent US12180207B2 (ARRAY BIOPHARMA INC., priority 2018, dated 2024).

The IC50 is the point on the concentration scale where inhibition reaches its midpoint. A high value points to lower potency.

For the assay, the target named is HEK-293 cells transfected with dox-inducible human wild type FGFR2 (Homo sapiens (Human), UniProt P21802). Nature of the assay: FGFR2 pFGFR cell assay (ELISA). The format is cell-based. Particulars: HEK-293 dox-inducible FGFR2, 1 hour compound, 30 ng/ml FGF-acidic. As to the method:
FGFR2 pFGFR Cell Assay: • HEK-293 cells transfected with dox-inducible human wild type FGFR2 (SEQ ID NO: 3) were plated in a collagen or poly-D-lysine coated 96 well flat bottom plates at 4×10^5 cells/well in complete DMEM medium containing 10% FBS and 1 μg/ml doxycycline and allowed to attach for 24 h at 37° C., 5% CO2. Cells were treated with compound using 1:3 serial dilutions with a maximum final concentration of 5 μM. Compound was incubated on cells for 1 hour at 37° C., 5% CO2. Cells were then stimulated with a final concentration of 30 ng/ml human FGF-acidic (R&D Systems Cat number 232-FA/CF) for 5 minutes at 37° C., 5% CO2. Medium was removed and cells were lysed with lysis buffer containing phosphatase and protease inhibitors. Phospho FGFR2 was measured by ELISA (R&D Systems cat. no. DYC684). The ELISA captures total FGFR2 and detects total phospho tyrosine. Optical density was measured for each well using a Versamax reader at a wavelength of 450 nm. 100 POC was determined using no test compounds and 0 POC was determined using a control compound. The POC values were fit to a 4-parameter logistic curve as a function of the concentration of the compound, and the IC50 value is the point where the curve crosses 50 POC.
For orientation: ELISA stands for enzyme-linked immunosorbent assay.

Sequence of HEK-293 cells transfected with dox-inducible human wild type FGFR2 (P21802 22-821): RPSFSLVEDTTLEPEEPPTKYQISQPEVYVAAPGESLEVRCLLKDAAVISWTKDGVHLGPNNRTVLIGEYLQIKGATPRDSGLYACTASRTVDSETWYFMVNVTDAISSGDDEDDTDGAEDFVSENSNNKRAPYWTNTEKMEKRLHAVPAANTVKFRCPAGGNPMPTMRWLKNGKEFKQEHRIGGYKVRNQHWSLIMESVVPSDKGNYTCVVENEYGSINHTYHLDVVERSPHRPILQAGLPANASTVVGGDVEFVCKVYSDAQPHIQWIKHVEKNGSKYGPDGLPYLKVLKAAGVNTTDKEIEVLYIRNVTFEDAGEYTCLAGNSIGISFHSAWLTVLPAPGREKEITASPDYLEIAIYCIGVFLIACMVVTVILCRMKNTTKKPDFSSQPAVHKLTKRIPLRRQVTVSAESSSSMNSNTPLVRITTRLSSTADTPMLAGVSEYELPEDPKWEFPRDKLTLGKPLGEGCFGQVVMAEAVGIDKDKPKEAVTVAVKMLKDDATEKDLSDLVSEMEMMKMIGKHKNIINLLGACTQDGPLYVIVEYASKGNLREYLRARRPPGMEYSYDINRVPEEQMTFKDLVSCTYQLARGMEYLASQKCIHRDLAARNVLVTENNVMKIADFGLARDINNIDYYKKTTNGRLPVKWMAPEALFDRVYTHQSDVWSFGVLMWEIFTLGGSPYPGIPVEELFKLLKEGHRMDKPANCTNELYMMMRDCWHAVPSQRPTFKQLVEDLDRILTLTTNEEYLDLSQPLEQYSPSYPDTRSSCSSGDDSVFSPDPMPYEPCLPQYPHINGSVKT

Compound `C=CC(=O)Nc1ccc(CN2CCC(n3cc(-c4cc(OC)c5c(C#N)cnn5c4)cn3)CC2)cc1` [Example 9, N-(4-((4-(4-(3-cyano-4-methoxypyrazolo[1,5-a]pyridin-6-yl)-1H-pyrazol-1-yl)piperidin-1-yl)methyl)phenyl)acrylamide] came in with an IC50 of 37 nM.

The compound `C=CC(=O)N(C)c1ccc(CN2CCC(n3cc(-c4cc(OC)c5c(C#N)cnn5c4)cn3)CC2)cc1` [Example 10, N-(4-((4-(4-(3-cyano-4-methoxypyrazolo[1,5-a]pyridin-6-yl)-1H-pyrazol-1-yl)piperidin-1-yl)methyl)phenyl)-N-methylacrylamide] came in with an IC50 of 36 nM. This IC50 and that of the compound before are within 1.5-fold of each other.

As for `C=CC(=O)N1CCC(n2cc(-c3cc(OC)c4c(C#N)cnn4c3)cn2)CC1` [Example 11, 6-(1-(1-acryloylpiperidin-4-yl)-1H-pyrazol-4-yl)-4-methoxypyrazolo[1,5-a]pyridine-3-carbonitrile], the IC50 stood at 14 nM. This IC50 lies about 2.6-fold lower than the previous one.

`C=CC(=O)N1CC(C(=O)N2CCC3(CC2)CN(c2ccc(-c4cc(OC)c5c(C#N)cnn5c4)cn2)C3)C1` [Example 102, 6-(6-(7-(1-acryloylazetidine-3-carbonyl)-2,7-diazaspiro[3.5]nonan-2-yl)pyridin-3-yl)-4-methoxypyrazolo[1,5-a]pyridine-3-carbonitrile] yielded an IC50 of 129 nM.

For the compound `C=CC(=O)N1CC(C(=O)N2C[C@@H]3C[C@H]2CN3c2ccc(-c3cc(OC)c4c(C#N)cnn4c3)cn2)C1` [Example 106, 6-(6-((1S,4S)-5-(1-acryloylazetidine-3-carbonyl)-2,5-diazabicyclo[2.2.1]heptan-2-yl)pyridin-3-yl)-4-methoxypyrazolo[1,5-a]pyridine-3-carbonitrile], the 50% inhibitory concentration (IC50) is 1200 nM. Against the preceding compound, the IC50 is about 9.3-fold higher.

In the case of `C=CC(=O)N1CC(CN2C[C@H]3C[C@@H]2CN3c2ccc(-c3cc(OC)c4c(C#N)cnn4c3)cn2)C1` [Example 108, 6-(6-((1R,4R)-5-((1-acryloylazetidin-3-yl)methyl)-2,5-diazabicyclo[2.2.1]heptan-2-yl)pyridin-3-yl)-4-methoxypyrazolo[1,5-a]pyridine-3-carbonitrile], inhibition was half-maximal at 236 nM (IC50). Against the preceding compound, the IC50 is about 5.1-fold lower.

On to `C=CC(=O)N1CC(C(=O)N2CCN(c3ccc(-c4cc(OC)c5c(C#N)cnn5c4)cn3)CC2)C1` [Example 111, 6-(6-(4-(1-acryloylazetidine-3-carbonyl)piperazin-1-yl)pyridin-3-yl)-4-methoxypyrazolo[1,5-a]pyridine-3-carbonitrile], for which inhibition was half-maximal at 348 nM (IC50).

In turn, `C=CC(=O)N1CC(OC)(C(=O)N2CCC(n3ncc(-c4cc(OC)c5c(Cl)cnn5c4)c3C)CC2)C1` [Example 117, 1-(3-(4-(4-(3-chloro-4-methoxypyrazolo[1,5-a]pyridin-6-yl)-5-methyl-1H-pyrazol-1-yl)piperidine-1-carbonyl)-3-methoxyazetidin-1-yl)prop-2-en-1-one] returned an IC50 of 283 nM.

In turn, `C=CC(=O)N1CC(CN2CCC(n3ncc(-c4cc(OC)c5c(Cl)cnn5c4)c3C)CC2)C1` [Example 118, 1-(3-((4-(4-(3-chloro-4-methoxypyrazolo[1,5-a]pyridin-6-yl)-5-methyl-1H-pyrazol-1-yl)piperidin-1-yl)methyl)azetidin-1-yl)prop-2-en-1-one] showed an IC50 of 267 nM.

In turn, `C=CC(=O)N1CC(CN2CCC(n3ncc(-c4cc(OC)c5c(Cl)cnn5c4)c3C)CC2)(OC)C1` [Example 119, 1-(3-((4-(4-(3-chloro-4-methoxypyrazolo[1,5-a]pyridin-6-yl)-5-methyl-1H-pyrazol-1-yl)piperidin-1-yl)methyl)-3-methoxyazetidin-1-yl)prop-2-en-1-one] gave an IC50 of 322 nM.

`C=CC(=O)N1CCN(C(=O)N2CCC(n3cc(-c4cc(OC)c5c(C#N)cnn5c4)cn3)CC2)C[C@@H]1CC#N` [Example 135, (S)-6-(1-(1-(4-acryloyl-3-(cyanomethyl)piperazine-1-carbonyl)piperidin-4-yl)-1H-pyrazol-4-yl)-4-methoxypyrazolo[1,5-a]pyridine-3-carbonitrile] registered an IC50 of 83 nM.

As to `COc1cc(-c2cnn(C3CCN(C(=O)C4(F)CN(C(=O)/C=C/CN(C)C)C4)CC3)c2C)cn2ncc(C#N)c12` [Example 153, (E)-6-(1-(1-(1-(4-(dimethylamino)but-2-enoyl)-3-fluoroazetidine-3-carbonyl)piperidin-4-yl)-5-methyl-1H-pyrazol-4-yl)-4-methoxypyrazolo [1,5-a]pyridine-3-carbonitrile], the IC50 came out at 188 nM.

For the compound `COC/C=C/C(=O)N1CC(F)(C(=O)N2CCC(n3ncc(-c4cc(OC)c5c(C#N)cnn5c4)c3C)CC2)C1` [Example 154, (E)-6-(1-(1-(3-fluoro-1-(4-methoxybut-2-enoyl)azetidine-3-carbonyl)piperidin-4-yl)-5-methyl-1H-pyrazol-4-yl)-4-methoxypyrazolo [1,5-a]pyridine-3-carbonitrile], the IC50 was 327 nM.

For `CC#CC(=O)N1CC(F)(C(=O)N2CCC(n3ncc(-c4cc(OC)c5c(C#N)cnn5c4)c3C)CC2)C1` [Example 156, 6-(1-(1-(1-(but-2-ynoyl)-3-fluoroazetidine-3-carbonyl)piperidin-4-yl)-5-methyl-1H-pyrazol-4-yl)-4-methoxypyrazolo [1,5-a]pyridine-3-carbonitrile], half-maximal inhibition (IC50) required 244 nM.

In turn, `COc1cc(-c2cnn(C3CCN(C(=O)C4(OC)CN(C(=O)/C=C/CN(C)C)C4)CC3)c2C)cn2ncc(C#N)c12` [Example 158, (E)-6-(1-(1-(1-(4-(dimethylamino)but-2-enoyl)-3-methoxyazetidine-3-carbonyl)piperidin-4-yl)-5-methyl-1H-pyrazol-4-yl)-4-methoxypyrazolo [1,5-a]pyridine-3-carbonitrile] came in with an IC50 of 1550 nM. Compared with the last compound, the IC50 is about 6.4-fold higher.

Compound `COc1cc(-c2cnn(C3CCN(CC4(OC)CN(C(=O)/C=C/CN(C)C)C4)CC3)c2C)cn2ncc(C#N)c12` [Example 159, (E)-6-(1-(1-((1-(4-(dimethylamino)but-2-enoyl)-3-methoxyazetidin-3-yl)methyl)piperidin-4-yl)-5-methyl-1H-pyrazol-4-yl)-4-methoxypyrazolo [1,5-a]pyridine-3-carbonitrile] came in with an IC50 of 451 nM.

Consider `COc1cc(-c2c(C)nn(C3CCN(C(=O)C4(F)CN(C(=O)/C=C/CN(C)C)C4)CC3)c2C)cn2ncc(C#N)c12` [Example 161, (E)-6-(1-(1-(1-(4-(dimethylamino)but-2-enoyl)-3-fluoroazetidine-3-carbonyl)piperidin-4-yl)-3,5-dimethyl-1H-pyrazol-4-yl)-4-methoxypyrazolo [1,5-a]pyridine-3-carbonitrile], for which the concentration for half-maximal inhibition (IC50) turned out to be 537 nM.

On to `COc1cc(-c2nnn(C3CCN(C(=O)C4(F)CN(C(=O)/C=C/CN(C)C)C4)CC3)c2C)cn2ncc(C#N)c12` [Example 164, (E)-6-(1-(1-(1-(4-(dimethylamino)but-2-enoyl)-3-fluoroazetidine-3-carbonyl)piperidin-4-yl)-5-methyl-1H-1,2,3-triazol-4-yl)-4-methoxypyrazolo [1,5-a]pyridine-3-carbonitrile], for which the 50% inhibitory concentration (IC50) amounted to 1180 nM.

In the case of `COc1cc(-c2cnn(C3CCN(C(=O)C4(F)CN(C(=O)/C=C/CN(C)C)C4)CC3)c2C)cn2ncc(Cl)c12` [Example 170, (E)-1-(3-(4-(4-(3-chloro-4-methoxypyrazolo [1,5-a]pyridin-6-yl)-5-methyl-1H-pyrazol-1-yl)piperidine-1-carbonyl)-3-fluoroazetidin-1-yl)-4-(dimethylamino)but-2-en-1-one], the IC50 was 171 nM.

The compound `COc1cc(-c2cnn(C3CCN(C(=O)C4(OC)CN(C(=O)/C=C/CN(C)C)C4)CC3)c2C)cn2ncc(Cl)c12` [Example 171, (E)-1-(3-(4-(4-(3-chloro-4-methoxypyrazolo [1,5-a]pyridin-6-yl)-5-methyl-1H-pyrazol-1-yl)piperidine-1-carbonyl)-3-methoxyazetidin-1-yl)-4-(dimethylamino)but-2-en-1-one] returned an IC50 of 263 nM.

On to `COc1cc(-c2cnn(C3CCN(C(=O)C4CN(C(=O)C#CCO)C4)CC3)c2)cn2ncc(C#N)c12` [Example 179, 6-(1-(1-(1-(4-hydroxybut-2-ynoyl)azetidine-3-carbonyl)piperidin-4-yl)-1H-pyrazol-4-yl)-4-methoxypyrazolo[1,5-a]pyridine-3-carbonitrile], for which the half-maximal inhibitory concentration (IC50) came to 1680 nM.

Compound `COc1cc(-c2cnn(C3CCN(C(=O)C4CN(C(=O)/C=C/CCl)C4)CC3)c2)cn2ncc(C#N)c12` [Example 181, (E)-6-(1-(1-(1-(4-chlorobut-2-enoyl)azetidine-3-carbonyl)piperidin-4-yl)-1H-pyrazol-4-yl)-4-methoxypyrazolo[1,5-a]pyridine-3-carbonitrile] showed an IC50 of 292 nM. Compared with the last compound, the IC50 is about 5.8-fold lower.

`C=CS(=O)(=O)N1CCC(C(=O)N2CCC(n3cc(-c4cc(OC)c5c(C#N)cnn5c4)cn3)CC2)CC1` [Example 186, 4-methoxy-6-(1-(1-(1-(vinylsulfonyl)piperi-dine-4-carbonyl)piperidin-4-yl)-1H-pyrazol-4-yl)pyrazolo[1,5-a]pyridine-3-carbonitrile] came in with an IC50 of 42 nM.
